{"source": "BindingDB's records for doi:10.1016/S0960-894X(01)80292-4", "about": "(1994)", "key": {"[1]": {"biological_target": "T1, Human immunodeficiency virus type 1 protease (Human immunodeficiency virus 1, UniProt Q72874)", "test": "(§1) Inhibitory activity was evaluated against HIV-1 protease"}, "[2]": {"biological_target": "T1, Human immunodeficiency virus type 1 protease", "test": "as §1", "remark": "listed apart in the source"}}, "data": [{"compound": "OC1N=C(Cc2ccccc2)P(O)(O)=C(Cc2ccccc2)N1", "note": "(configuration not stated) [4,6-Dibenzyl-5-hydroxy-5-oxo-5lambda*5*-[1,3,5]diazaphosphinan-2-one]", "values": [{"measurement": "IC50", "setting": "[1]", "value": "> 100", "unit": "µM"}, {"measurement": "IC50", "setting": "[2]", "value": "> 100", "unit": "µM"}]}]}
